# In paper PMC9313426, “CDI Exerts Anti-Tumor Effects by Blocking the FoxM1-DNA Interaction” (Biomedicines, 2022):
# Biological target: T1, FoxM1 (Homo sapiens, UniProt Q08050)
# T1 sequence (Q08050 222-360 limits assumed): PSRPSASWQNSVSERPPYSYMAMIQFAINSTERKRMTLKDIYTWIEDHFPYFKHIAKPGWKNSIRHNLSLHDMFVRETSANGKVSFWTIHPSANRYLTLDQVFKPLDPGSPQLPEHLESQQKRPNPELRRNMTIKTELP
# Assay: TR-FRET FoxM1-DBD/biotinylated dsDNA binding inhibition assay
row,Structure (SMILES),IC50
1,"CC(C)C1=C[C@@]23CC[C@@H]4[C@](C)(CCC[C@@]4(C)C(=O)O)[C@H]2C[C@@H]1[C@H]1C(=O)C=C(Cl)C(=O)[C@H]13 [CDI, (4aR,4bS,6aR,7R,10aR,10bR,12R,12aR)-3-Chloro-4,4a,5,6,6a,7,8,9,10,10a,10b,11,12,12a-tetradecahydro-7,10a-dimethyl-13-(1-methylethyl)-1,4-dioxo-1H-4b,12-ethenochrysene-7-carboxylic acid]",4.9 ± 1.5 µM
2,Nc1c(C(=O)Nc2ccc(F)cc2)sc2nc(-c3cccs3)cc(C(F)(F)F)c12 [FDI-6],3.7 ± 0.9 µM
